Measurements: US10899747B2, “Biaryl piperidine amide compounds and methods of use thereof” (Athenex, Inc., priority 2017, dated 2021)

What follows are compounds tested on IL-2 (assay: PHA-IL2 (cell activation and cytokine analysis)). Conditions: 50% inhibition concentration class.
Format: cell-based
Procedure: Cells to be tested may include, but are not limited to, a) Jurkat (a transformed human T cell leukemia), b) whole blood isolated from human or rodent sources, c) peripheral blood mononuclear cells (PBMC) freshly isolated from human or rodent whole blood, or d) purified fractions of PBMC (e.g., CD4 T cells). Cells are plated in 96-well plates at a final density of 1.0-2.0×10^6 cells/ml in 150 ul of assay medium (RPMI+0.5% fetal calf serum). Test compounds are included at a final concentration of ≤20 uM and generally pre-incubated with cells for 30 minutes prior to stimulation. An appropriate stimulus is added, including but not limited to, a) phytohemagglutinin (PHA), b) phorbol myristate acetate (PMA) and ionomycin, or c) stimulatory antibodies to the T cell receptor (TCR) complex (e.g., anti-CD3ε) and CD28. Cell cultures are stimulated for 24-48 hours in a humidified incubator (37 degrees C./5% CO2). A fraction of the culture supernatant is than harvested from each well and assayed for the presence of appropriate cytokine using standard ELISA. Cytokines to be analyzed may include IL-2, IL-4, IL-10, IL-17, IL-22, IFNγ, and/or TNFα. If required, the number of cytokine producing cells can be determined using intracellular staining and flow cytometry. […]
`COc1cccc(CCC2CCN(C(=O)CCc3ccccc3-c3ccc(F)cc3)CC2)c1` [Compound 224] showed an IC50 of 1000 to 10000 nM. For `CC(C)NS(=O)(=O)c1ccc(OCC(=O)N2CCC(CCc3ccc4c(c3)OCO4)CC2)c(-c2ccc(F)cc2O)c1` [Compound 390], the IC50 was 1000 to 10000 nM. With `N#Cc1ccc(-c2ccccc2OCC(=O)N2CCC(CCc3ccc4c(c3)OCO4)CC2)c(F)c1` [Compound 251] the IC50 was under 1000 nM. `NC(=O)c1ccc(OCC(=O)N2CCC(CCc3ccccc3)CC2)c(-c2ccc(F)cc2O)c1` [Compound 320] was tested, and the IC50 was under 1000 nM. Work on `COc1ccc(CCC2(O)CCN(C(=O)COc3ccc(F)cc3-c3ccccc3)CC2)cc1` [Compound 176] yielded an IC50 of 10000 to 50000 nM. `CCCC(Oc1ccccc1-c1ccccc1)C(=O)N1CCC(CCc2ccc3c(c2)OCCCO3)CC1` (stereo not drawn) [Compound 210] was tested, and the IC50 was under 1000 nM. Work on `CCCOc1cccc(-c2ccccc2OCC(=O)N2CCC(CCc3ccc4c(c3)OCO4)CC2)c1` [Compound 244] yielded an IC50 of 1000 to 10000 nM. `O=C(COc1ccccc1-c1cccc(OCc2ccccc2)c1)N1CCC(CCc2ccc3c(c2)OCO3)CC1` [Compound 217] gave an IC50 of 1000 to 10000 nM. `COc1cccc(CCC2CCN(C(=O)COc3ccccc3-c3ccc4[nH]cnc4c3)CC2)c1` [Compound 371] showed an IC50 of under 1000 nM. `N#Cc1ccc(-c2ccccc2OCC(=O)N2CCC(CCc3ccc4c(c3)OCCCO4)CC2)cc1` [Compound 231] was tested, and the IC50 was under 1000 nM. Work on `COc1cccc(CCC2CCN(C(=O)COc3cccnc3-c3ccc(C#N)cc3)CC2)c1` [Compound 361] yielded an IC50 of 1000 to 10000 nM. `COc1cccc(CCC2CCN(C(=O)COc3ccc(C(F)(F)F)cc3-c3ccc(F)cc3O)CC2)c1` [Compound 353] was tested, and the IC50 was under 1000 nM. `O=C(COc1cccnc1-c1ccc(F)cc1O)N1CCC(CCc2cccc(OCCN3CCCCC3)c2)CC1` [Compound 360] gave an IC50 of 1000 to 10000 nM. `O=C(COc1ccccc1-c1ccccc1)N1CCC(CCc2cc(C(F)(F)F)cc(C(F)(F)F)c2)CC1` [Compound 117] was tested, and the IC50 was under 1000 nM. In the case of `O=C(COc1ccccc1-c1ccccc1CN1CCOCC1)N1CCC(CCc2ccc3c(c2)OCO3)CC1` [Compound 228], the IC50 is reported as 1000 to 10000 nM. Work on `N#Cc1ccc(-c2ccccc2OCC(=O)N2CCC(CCc3ccc(O)cc3)CC2)cc1` [Compound 279] yielded an IC50 of under 1000 nM. `O=C(COc1ccccc1-c1ccc(F)nc1)N1CCC(CCc2ccc3c(c2)OCO3)CC1` [Compound 193] gave an IC50 of under 1000 nM. For `CCOc1ccccc1-c1ccccc1OCC(=O)N1CCC(CCc2ccc3c(c2)OCO3)CC1` [Compound 207], the IC50 was under 1000 nM. For `N#Cc1ccc(-c2ccccc2OCC(=O)N2CCC(CCc3ccc4c(c3)NC(=O)CO4)CC2)cc1` [Compound 257], the IC50 was 1000 to 10000 nM. Work on `O=C(COc1ccc(C(F)(F)F)cc1-c1ccc(F)cc1O)N1CCC(CCc2ccccc2)CC1` [Compound 351] yielded an IC50 of under 1000 nM. In the case of `O=C(COc1ccccc1-c1ccc(Cl)cc1Cl)N1CCC(CCc2ccc3c(c2)OCO3)CC1` [Compound 240], the IC50 is reported as 1000 to 10000 nM. Compound `N#Cc1ccc(-c2cc(C(=O)Nc3ccccc3)ccc2OCC(=O)N2CCC(CCc3ccccc3)CC2)cc1` [Compound 369] has an IC50 of 1000 to 10000 nM. For `COc1cccc(CCC2CCN(C(=O)CSc3ccccc3-c3ccccc3)CC2)c1` [Compound 287], the IC50 was 1000 to 10000 nM. Work on `CC(C)Oc1cccc(CCC2CCN(C(=O)COc3ccccc3-c3ccc(C#N)cc3OCc3ccccc3)CC2)c1` [Compound 442] yielded an IC50 of under 1000 nM. `N#Cc1ccc(OCC(=O)N2CCC(CCc3cccc(OC4CC4)c3)CC2)c(-c2ccc(F)cc2O)c1` [Compound 407] gave an IC50 of under 1000 nM. With `COc1cccc(CCC2CCN(C(=O)COc3ccccc3-c3ccc4[nH]c(C)nc4c3)CC2)c1` [Compound 387] the IC50 was 1000 to 10000 nM. `Cc1cnc(-c2ccccc2OCC(=O)N2CCC(CCc3ccccc3)CC2)cn1` [Compound 424] showed an IC50 of 1000 to 10000 nM. `N#Cc1ccc(OCC(=O)N2CCC(CCc3ccc4c(c3)OCO4)CC2)c(-c2ccc(F)cc2O)c1` [Compound 346] gave an IC50 of under 1000 nM. `CN(C)C(=O)c1ccc(OCC(=O)N2CCC(CCc3ccccc3)CC2)c(-c2ccc(C#N)cc2)c1` [Compound 316] showed an IC50 of 1000 to 10000 nM. Work on `O=C(C1CC1c1cc2c(cc1-c1ccccc1)OCO2)N1CCC(CCc2ccc3c(c2)OCO3)CC1` (stereo not drawn) [Compound 260] yielded an IC50 of under 1000 nM.
